Test results reported in paper PMC7079562 (Bioorganic & Medicinal Chemistry, 2016).

Target: SARS-CoV 3CL^pro (Severe acute respiratory syndrome coronavirus, UniProt P0C6X7)
Type: biochemical

## CC1=NN(c2ccccc2)C(=O)/C1=C\c1ccc(-c2cc(Cl)ccc2C(=O)O)o1 [Compound 3e, 4-Chloro-2-(5-((3-methyl-5-oxo-1-phenyl-1,5-dihydro-4H-pyrazol-4-ylidene)methyl)furan-2-yl)benzoic acid]
  Inhibitory activity against SARS 3CLpro (in words): unable to inhibit

## O=C1/C(=C\c2ccc(-c3ccccc3)o2)C(c2ccccc2)=NN1c1ccccc1 [Compound 3j, 2,5-Diphenyl-4-((5-phenylfuran-2-yl)methylene)-2,4-dihydro-3H-pyrazol-3-one]
  Inhibitory activity against SARS 3CLpro (in words): inactive

## CC1=NN(c2cccc(C(=O)O)c2)C(=O)/C1=C\c1ccc(-c2ccccc2)o1 [Compound 3l, 3-(3-Methyl-5-oxo-4-((5-phenylfuran-2-yl)methylene)-4,5-dihydro-1H-pyrazol-1-yl)benzoic acid]
  Inhibitory activity against SARS 3CLpro (in words): unable to inhibit
